Test results published in US7928121B2, “5-HT7 receptor antagonists” (Laboratorios Del Dr. Esteve, S.A., priority 2004, dated 2011).
Counter-ions that a name gives are not always drawn.

Target: T1, Cloned Human Serotonin Receptor, Subtype 7 (h5HT7) (Homo sapiens, UniProt P34969)
T1 construct: purchased PerkinElmer 6120512; host or cells: CHO cells (membranes coated on Basic FlashPlate SMP200)
Assay: Radioligand binding assay, cloned human serotonin receptor subtype 7 (h5HT7) expressed in CHO cells, [125I]LSD, Flashplate
Conditions: radioligand [125I]LSD 0.82 nM, room temperature, 240 minutes, triplicate determinations, read-out: 5-HT7 IC-50
Procedure: Biological Assays Radioligand Binding
Radioligand binding assays were performed using the Cloned Human Serotonin Receptor, Subtype 7 (h5HT7), expressed in CHO cells, coated on Flashplate (Basic FlashPlate Cat.: SMP200) from PerkinElmer (Cat.: 6120512). The protocol assay was essentially the recommended protocol in the Technical Data Sheet by PerkinEmer Life and Analytical Sciences. The Mass membrane protein/well was typically 12 μg and the Receptor/well was about 9-10 fmoles. The Flashplate were let equilibrate at room temperature for one hour before the addition of the components of the assay mixture. The binding buffer was: 50 mM Tris-HCl, pH 7.4, containing 10 mM MgCl2, 0.5 mM EDTA and 0.5% BSA. The radioligand was [^125I]LSD at a final concentration of 0.82 nM. Nonspecific binding was determined with 50 μM of Clozapine. The assay volume was 25 μl. TopSeal-A were applied onto Flashplate microplates and they were incubated at room temperature for 240 minutes in darkness. The radioactivity were quantified by liquid scintillation spectrophotometry (Wallac 1450 Microbeta Trilux) with a count delay of 4 minutes prior to counting and a counting time of 30 seconds per well. Competition binding data were analyzed by using the LIGAND program (Munson and Rodbard, LIGAND: A versatile, computerized approach for characterization of ligand-binding systems. Anal. Biochem. 107: 220-239, 1980) and assays were performed in triplicate determinations for each point.

T1 sequence (P34969 whole entry): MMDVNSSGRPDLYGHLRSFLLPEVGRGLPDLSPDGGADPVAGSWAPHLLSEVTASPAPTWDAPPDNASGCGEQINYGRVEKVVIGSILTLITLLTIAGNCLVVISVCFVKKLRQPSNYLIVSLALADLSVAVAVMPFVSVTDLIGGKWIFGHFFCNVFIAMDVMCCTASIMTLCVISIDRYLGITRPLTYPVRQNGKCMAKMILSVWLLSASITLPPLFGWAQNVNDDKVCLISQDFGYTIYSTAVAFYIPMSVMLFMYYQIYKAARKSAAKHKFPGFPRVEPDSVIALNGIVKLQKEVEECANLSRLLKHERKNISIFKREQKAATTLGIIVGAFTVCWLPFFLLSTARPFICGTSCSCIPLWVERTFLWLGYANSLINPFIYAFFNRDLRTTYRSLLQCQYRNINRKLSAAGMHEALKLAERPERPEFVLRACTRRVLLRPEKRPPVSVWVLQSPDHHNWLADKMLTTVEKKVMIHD

Cc1cc(S(=O)(=O)N2CCC(CN3CCc4ccccc4C3)CC2)c(C)cc1Cl [Compound 16, 2-[1-(4-Chloro-2,5-dimethyl-benzenesulfonyl)-piperidin-4-ylmethyl]-1,2,3,4-tetrahydroisoquinoline hydrochloride]
IC50: 36.1 ± 16 nM

COc1cc2c(cc1OC)CN(CC1CCN(S(=O)(=O)c3cc(Cl)ccc3Cl)CC1)CC2 [Compound 85, 2-[1-(2,5-Dichloro-benzenesulfonyl)-piperidin-4-ylmethyl]-6,7-dimethoxy-1,2,3,4-tetrahydro-isoquinoline hydrochloride]
IC50: 60.7 nM

O=S(=O)(c1ccccc1Cl)N1CCC(CN2CCc3ccccc3C2)CC1 [Compound 2, 2-[1-(2-Chloro-benzenesulfonyl)-piperidin-4-ylmethyl]-1,2,3,4-tetrahydro-isoquinoline hydrochloride]
IC50: 28.4 ± 18.2 nM

O=S(=O)(c1ccccc1Br)N1CCC(CN2CCc3ccccc3C2)CC1 [Compound 22, 2-[1-(2-Bromo-benzenesulfonyl)-piperidin-4-ylmethyl]-1,2,3,4-tetrahydro-isoquinoline hydrochloride]
IC50: 16.8 ± 8 nM

O=S(=O)(c1cccc2ccccc12)N1CCC(CN2CCc3ccccc3C2)CC1 [Compound 23, 2-[1-(Naphtalene-1-sulfonyl)-piperidin-4-ylmethyl]-1,2,3,4-tetrahydroisoquinoline hydrochloride]
IC50: 83.4 nM

O=S(=O)(c1cc(Cl)ccc1Cl)N1CCC(CN2CCc3ccccc3C2)CC1 [Compound 3, 2-[1-(2,5-Dichloro-benzenesulfonyl)-piperidin-4-ylmethyl]-1,2,3,4-tetrahydro-isoquinoline hydrochloride]
IC50: 76.4 nM

COc1cc2c(cc1OC)CN(CC1CCN(S(=O)(=O)c3ccccc3Cl)CC1)CC2 [Compound 77, 2-[1-(2-Chlorobenzene-sulfonyl)-piperidin-4-ylmethyl]-6,7-dimethoxy-1,2,3,4-tetrahydroisoquinoline hydrochloride]
IC50: 41.8 nM

O=S(=O)(c1cc(Cl)c(F)cc1F)N1CCC(CN2CCc3ccccc3C2)CC1 [Compound 1, 2-[1-(5-Chloro-2,4-difluoro-benzenesulfonyl)-piperidin-4-ylmethyl]-1,2,3,4-tetrahydroisoquinoline hydrochloride]
IC50: 70.2 nM

O=S(=O)(c1cc(F)c(F)cc1Cl)N1CCC(CN2CCc3ccccc3C2)CC1 [Compound 6, 2-[1-(2-Chloro-4,5-difluoro-benzene-sulfonyl)-piperidin-4-ylmethyl]-1,2,3,4-tetrahydroisoquinoline hydrochloride]
IC50: 18.2 ± 3.7 nM

Cc1cccc(S(=O)(=O)N2CCC(CN3CCc4ccccc4C3)CC2)c1 [Compound 5, 2-[1-(Toluene-3-sulfonyl)-piperidin-4-ylmethyl]-1,2,3,4-tetrahydroisoquinoline hydrochloride]
IC50: 63 nM
